Measured values as given in patent US8221773B2, “Hydrogels and uses thereof” (University of Delaware, priority 2004, dated 2012).
“Also recorded” adds a separate entry of the source. Where no end group is shown, it is not given here.

Legend:
[1] = Temperature dependent CD: temperature at which folding and self-assembly is triggered (Tgel); format: physicochemical; settings: pH 9 and low (20 mM) salt
Text: At low temperature MAX1 is unfolded (and unassembled). At high temperature MAX1 folds into beta-sheet (and consequently self-assembles into a hydrogel). […] The relative hydrophobicity is MAX1>MAX2>MAX3 due to the isostructural but less hydrophobic substitutions of threonine for valine at the underlined positions. The most hydrophobic folds at the lowest temperature while the least hydrophobic folds at the highest temperature. This is a direct manifestations of the molecular parameter manipulations described in FIG. 2. Also shown are the calculated free energy of transfer of each corresponding unfolded peptide having an overall +8 charge state from octanol into water at 25° C. MAX1, the most hydrophobic has the highest free energy of transfer equal to 7.60 kcal/mol. MAX2 has a calculated transfer free energy of 6.88 kcal/mol, while the least hydrophobic MAX3 has the lowest energy of transfer of 6.45 kcal/mol.
This allows the characteristics of the hydrogels of the invention to be varied by adjusting these parameters. […] It is well known that water is better able to solvate hydrophobic groups at low temperatures. This phenomenon has been used to describe the cold denaturation of proteins where some proteins unfold at low temperatures, exposing their hydrophobic interiors to aqueous solvent. A 150 μM aqueous solution of MAX1 unfolds when cooled below room temperature. The CD spectrum at 5° C. is consistent with random coil conformation, FIG. 9A. However, warming the solution to 40° C. results in a spectra consistent with β-sheet structure. […] In fact, previous studies involving the pH induced folding and self-assembly of MAX1 were performed at 20° C. At this temperature, folding and self-assembly are slow enough to be conveniently monitored. At higher temperatures, folding and self: assembly leading to hydrogelation is fast (instantaneous to seconds depending on concentration). If the formation of hydrophobic interactions affects the folding and self-assembly process, then altering the hydrophobic content of MAX1 should affect the temperature at which folding is triggered. […] MAX2 is identical to MAX1 except that one valine residue has been replaced with the isostructural, but less hydrophobic residue, threonine. In MAX3, two valines are replaced with threonine residues. The resulting peptides vary in their hydrophobicity as evident by comparing calculated free energies of transfer from octanol into water, FIG. 9. […] Thus, the formation of hydrophobic contacts influences folding and self-assembly. […] Thus, the characteristics of the hydrogels of the invention can be varied by adjusting the amino acid residues of the peptides used to form the hydrogels to increase or decrease the hydrophobicity of the amino acid residues used.
There are reports of large polymers that are thermally responsive. The present invention provides the first system that employs temperature triggered folding to induce self-assembly. […] Heating the solution to 80° C. results in a spectra consistent with β-sheet structure. […] The temperatures used in both CD and rheology bracket the temperature (Tgel=60° C., FIG. 9) at which folding and consequent self-assembly is triggered. […] For example, free flowing peptide solutions could be prepared at room temperature and administered in vivo where the temperature of the body could induce gelation. […]

[2] = test system: fibroblasts (NIH 3T3, mouse); assay: Fibroblast adhesion and proliferation on hydrogel by optical microscopy; format: cell-based
Protocol: These cells were used as a model system because of their importance in connective tissue development and their easily distinguished morphology when adhered to the hydrogel scaffold. Qualitative studies were performed in which cells were added to either polystyrene control wells or wells containing a uniform slab (3 mm thick) of MAX1-hydrogel. Cell adhesion was qualitatively monitored via direct observation of cell spreading after four hours from the time of initial cell seeding by optical microscopy (a quantitative cell attachment assay is described below, see also Akiyama, S. K. Functional analysis of cell adhesion: Quantitation of cell-matrix attachment, 2002; Vol. 69, pp 281-296). Non-adhered fibroblasts have rounded morphologies and adhered fibroblasts have spread morphologies Proliferation was measured both qualitatively by optical microscopy and quantitatively by a ^3H thymidine-based cell seeding assay as described below. Hydrogels were prepared in 48 well tissue culture plates by either one of the following protocols. Protocol 1: MAX1 was dissolved in water (resulting in an acidic solution, pH~5) and an equal volume of buffer (pH 9, 250 mM borate, 20 mM NaCl) was added at room temperature to induce folding/self-assembly resulting in a 2 wt % hydrogel. The resulting gel was bathed in DMEM containing 10% calf serum and […] gentamicin. This allowed media to permeate throughout the gel and adjust the pH to 7.3 The storage moduli (rigidity) of gels prepared by protocol 1 are about 1600 Pa. Protocol 2: MAX1 was dissolved in water and an equal volume of serum free DMEM containing […] gentamicin was added to induce folding/self-assembly affording 2 wt % hydrogels. Depending on the experiment, DMEM containing calf serum can then be added to introduce serum proteins. The storage moduli of gels prepared by protocol 2 are about 1200 Pa. […] Proliferation of the cells occurs until confluency is reached, usually around 72 hours if 10^4 cells are initially plated, FIG. 16B. Cells remain viable for at least a month as long as fresh media is provided (we stopped the assay after 1 month). Cells added to control wells containing no gel show similar behavior, FIGS. 16 C and D. In FIGS. 16A-D, cells are plated in the presence of DMEM containing 10% calf serum. Serum proteins may help mediate cellular adhesion to the hydrogel by first coating the scaffold. To determine if the hydrogel scaffold alone is conducive to cell adhesion, cells were plated onto 2 wt. % hydrogels in the absence of serum. […] The incorporation of cell binding epitopes in peptides used in hydrogel formation may be used to enhance cell adhesion in the absence of serum.

[3] = Oscillatory rheology of peptide hydrogels (storage and loss moduli); format: physicochemical; settings: 2 wt %, pH 9, 20° C, 6 Hz, 1% strain

VKVKVKVK V^DPPT KVKVKVKV-NH2 (not fully specified (C-terminus)) [MAX1]
transition temperature from random coil to folded β-sheet structure [1]: around 25 °C
time to confluency ([2]; 2 wt % gel, 10^4 cells initially plated, DMEM with 10% calf serum): around 72 hours
fibroblast adhesion to gel surface in the presence of serum ([2]; 2 wt % gel, DMEM with 10% calf serum, after four hours): adhered; also recorded: efficiently attached
fibroblast attachment and spreading in the absence of serum, compared to serum containing cultures ([2]; 2 wt. % hydrogels, after about four hours): to a lesser extent; also recorded: less efficiently
cell proliferation after addition of serum at four hours ([2]; 2 wt. % hydrogels, plated without serum, 72 hours): near confluency
time cells remain viable on gel ([2]; fresh media provided): ≥ 1 month
gel storage modulus after 30 minutes [3]: ~600 Pa
